Source: patent US6528517B1, “Synthesis of quinobenzoxazine analogues with topoisomerase II and quadruplex interactions for use as antineoplastic agents” (Board of Regents, The University of Texas System, priority 1998, dated 2003)
“Also recorded” adds a separate entry of the source. Values belong to the compound of their own block, whether it stands above or below them.

Experiments:
topo II-DNA complex [1] = target: T1, topo II-DNA complex (Drosophila melanogaster, UniProt P15348); settings: cited from earlier work
T1 construct: purchased Amersham
T1 sequence (P15348 1-1447): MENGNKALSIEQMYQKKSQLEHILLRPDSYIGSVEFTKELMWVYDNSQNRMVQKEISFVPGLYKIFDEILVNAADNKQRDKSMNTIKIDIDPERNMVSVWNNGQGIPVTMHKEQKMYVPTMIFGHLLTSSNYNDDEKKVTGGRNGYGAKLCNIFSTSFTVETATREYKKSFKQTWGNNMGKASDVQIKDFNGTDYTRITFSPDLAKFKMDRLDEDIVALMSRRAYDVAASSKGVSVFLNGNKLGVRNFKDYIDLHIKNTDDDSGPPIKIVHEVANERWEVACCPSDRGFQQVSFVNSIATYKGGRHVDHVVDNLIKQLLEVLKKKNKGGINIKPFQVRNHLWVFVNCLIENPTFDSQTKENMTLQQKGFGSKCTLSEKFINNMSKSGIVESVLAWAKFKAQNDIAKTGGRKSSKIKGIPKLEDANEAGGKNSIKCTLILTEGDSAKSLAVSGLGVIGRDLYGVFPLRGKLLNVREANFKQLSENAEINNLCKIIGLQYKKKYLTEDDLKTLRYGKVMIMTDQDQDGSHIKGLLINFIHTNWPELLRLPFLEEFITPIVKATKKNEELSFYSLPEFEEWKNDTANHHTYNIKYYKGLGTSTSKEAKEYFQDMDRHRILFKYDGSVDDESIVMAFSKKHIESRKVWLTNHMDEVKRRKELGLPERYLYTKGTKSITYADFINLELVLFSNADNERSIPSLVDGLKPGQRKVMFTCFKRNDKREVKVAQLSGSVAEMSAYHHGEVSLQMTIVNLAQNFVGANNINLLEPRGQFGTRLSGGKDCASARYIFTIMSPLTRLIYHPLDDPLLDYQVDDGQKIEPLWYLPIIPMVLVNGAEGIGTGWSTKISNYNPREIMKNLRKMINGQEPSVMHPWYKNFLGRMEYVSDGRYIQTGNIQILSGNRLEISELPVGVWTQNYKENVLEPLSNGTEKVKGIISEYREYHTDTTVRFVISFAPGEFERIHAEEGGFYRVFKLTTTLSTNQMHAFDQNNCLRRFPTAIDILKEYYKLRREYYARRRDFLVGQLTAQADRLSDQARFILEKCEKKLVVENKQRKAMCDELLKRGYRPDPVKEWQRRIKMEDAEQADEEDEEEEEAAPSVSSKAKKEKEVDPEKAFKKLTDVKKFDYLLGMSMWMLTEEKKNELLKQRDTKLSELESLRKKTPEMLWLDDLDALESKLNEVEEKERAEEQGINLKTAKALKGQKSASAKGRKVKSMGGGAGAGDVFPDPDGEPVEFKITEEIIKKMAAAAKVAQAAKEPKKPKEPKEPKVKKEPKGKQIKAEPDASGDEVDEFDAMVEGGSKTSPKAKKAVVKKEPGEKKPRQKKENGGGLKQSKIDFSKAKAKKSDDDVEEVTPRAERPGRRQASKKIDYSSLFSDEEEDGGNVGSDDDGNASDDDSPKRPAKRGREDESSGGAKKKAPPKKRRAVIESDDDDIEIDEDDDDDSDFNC

topo II-DNA complex [2] = target: T1, topo II-DNA complex; assay: Psorospermin competition study (DNA strand breakage assay); format: biochemical; settings: 0.5-10 μM drug, psorospermin, topo II present
Experimental: 5′^32P-labeled DNA was incubated with Drosophila topo II in the same buffer as the one in the topo II cleavage reaction in the presence of various amounts of either A-62176, Norfloxacin, or both. The incubation reactions took place at 30° C. for 10 min before 10 μM (final concentration) of psorospermin was added to the mixtures. The reactions were continued for an additional 5 min and then terminated by adding 5 μg of calf thymus DNA, followed by heating at 95° C. for 15 min. In the presence of piperidine, this procedure induces strand breakage at the drug modification sites (Hansen et al., 1996). The samples were subjected to phenol/chloroform extraction followed by ethanol precipitation.
In the presence of topo II, the reactivity of psorospermin is enhanced more than 40-fold with the guanine at the +4′ position at site B in FIG. 7 (Kwok et al., 1998a and 1998b). A DNA strand breakage assay was used to locate the position of alkylation of DNA by the epoxide of psorospermin upon intercalation to the base pairs between the +1 and +2 positions at site B within the topo II-DNA complex (Kwok et al., 1998a). Psorospermin has subsequently been used to probe the binding sites for m-AMSA (Kwok et al., 1998a). In the present study, this same assay was performed to determine the binding site of A-62176 on DNA in the presence of topo II.

[3] = tested on: prostate cell line DU-145; assay: Cytotoxicity of III in combination with Norfloxacin; format: cell-based; settings: given alone
Experimental: FIG. 11. Effect of increasing concentrations of Norfloxacin on the cytotoxic effect of QQ58, compound III in FIG. 2 in the prostate cell line DU-145. Compound III was either given alone (●) or in combination with Norfloxacin at concentrations of 2.58 (♦), 19.37 (♦), or 87.33 (▪) μg/ml. For additions of 2.58 and 19.37 μ/ml of Norfloxacin, the IC50 of compound III was increased by approximately 14- and 20-fold.
Exponentially growing cells in 0.1 ml medium were seeded on Day 0 in 96-well microtiter plates. On Day 1, 0.1-ml aliquots of medium containing graded concentrations test agent were added in duplicate to the cell plates. After incubation at 37° C. in a humidified incubator, the plates were centrifuged briefly (1-2 min at 1000 rpm), and 100 μl of the growth medium was removed. Cell cultures were incubated with 50 μl of 3-(4,5-dimethylthiazyl-2-yl)-2,5-diphenyltetrazolium bromide MTT, 1 mg/ml in Dubecco's PBS for 4 h at 37° C. […] Absorbance was quantitated using a Bio-Rad Model 3550 microplate reader at a test wavelength of 570 nm and a reference wavelength of 630 nm. Absorbance values were transferred to a 486 personal computer, and the IC50 values were determined using the computer program EZ-ED50 (Chen et al., 1993).
In separate studies, the IC50 of III and the IC10, IC20, and IC50 of Norfloxacin were determined for DU-145, a prostate cell line.

human telomerase = assay: Telomerase inhibition assay (HeLa cell extract); format: biochemical
Experimental: The assay used crude HeLa cell extract as the source of human telomerase. It measures the incorporation of ^32P-labeled dGTP into the primer extension of human telomere synthesis (Sun et al., 1998). […] Specific examples of such dual-acting compounds include compounds 2b and 2a (FIG. 3).
The assay was performed by using 5′-end biotinylated d[TTAGGG]3 as the telomere primer. Reaction mixtures (20 μl) containing 5 μl cell lysate (S-100), 50 mM Tris-OAc (pH 8.5), 50 mM K-OAc, 1 mM MgCl2, 5 mM BME, 1 mM spermidine, 1 μM telomere primer, 1.5 μM [α-^32P]-dGTP (800 Ci/mmol), 1 mM dATP, and 1 mM dTTP were incubated at 37° C. for 1 hr, and the reactions were terminated by adding 20 μl of […] streptavidin-coated Dynabeads suspension containing 10 mM Tris-HCl (pH 7.5), 1 mM EDTA, 2M KCl, and a 500 cpm biotinylated internal control. Streptavidin-coated Dynabeads bind selectively to the desired target (5′-biotinylated primer), forming a magnetic bead-targeted complex. The complex was separated from the suspension using a Dynal MPC magnet and washed several times with 2×SSC buffer containing 0.1% SDS to eliminate [α-^32P]-dGTP background. Telomerase reaction products were separated from the magnetic beads by protein denaturation with 5.7 M guanidine-HCl at 90° C. for 30 min. After ethanol precipitation, products were resolved on denaturating 10% polyacrylamide gel.

B16 melanoma = assay: Cancer cell growth inhibition assay (MTT); format: cell-based, murine
Experimental: (§1) Exponentially growing cells in 0.1 ml medium were seeded on Day 0 in 96-well microtiter plates. On Day 1, 0.1-ml aliquots of medium containing graded concentrations test agent were added in duplicate to the cell plates. After incubation at 37° C. in a humidified incubator, the plates were centrifuged briefly (1-2 min at 1000 rpm), and 100 μl of the growth medium was removed. Cell cultures were incubated with 50 μl of 3-(4,5-dimethylthiazyl-2-yl)-2,5-diphenyltetrazolium bromide MTT, 1 mg/ml in Dubecco's PBS for 4 h at 37° C. The resulting purple formazan precipitate was solubilized with 200 μl of 0.4 N HCl in isopropyl alcohol. Absorbance was quantitated using a Bio-Rad Model 3550 microplate reader at a test wavelength of 570 nm and a reference wavelength of 630 nm. Absorbance values were transferred to a 486 personal computer, and the IC50 values were determined using the computer program EZ-ED50 (Chen et al., 1993).

H226 non-small-cell lung = assay: Cancer cell growth inhibition assay (MTT); format: cell-based, human
Experimental: as §1

Raji lymphoma = assay: Cancer cell growth inhibition assay (MTT); format: cell-based, human
Experimental: as §1

HT-29 colon = assay: Cancer cell growth inhibition assay (MTT); format: cell-based, human
Experimental: as §1

MDA-231 breast = assay: Cancer cell growth inhibition assay (MTT); format: cell-based, human
Experimental: as §1

DU-145 prostate = assay: Cancer cell growth inhibition assay (MTT); format: cell-based, human
Experimental: as §1

human topoisomerase II = target: T2, human topoisomerase II (Homo sapiens, UniProt P11388); assay: Decatenation assay (catenated to decatenated KDNA); format: biochemical; settings: drug concentration that inhibits 50% of conversion of catenated to decatenated KDNA; read-out: topoisomerase II inhibition IC50
T2 construct: purchased TopoGEN, Inc
T2 sequence (P11388 whole entry): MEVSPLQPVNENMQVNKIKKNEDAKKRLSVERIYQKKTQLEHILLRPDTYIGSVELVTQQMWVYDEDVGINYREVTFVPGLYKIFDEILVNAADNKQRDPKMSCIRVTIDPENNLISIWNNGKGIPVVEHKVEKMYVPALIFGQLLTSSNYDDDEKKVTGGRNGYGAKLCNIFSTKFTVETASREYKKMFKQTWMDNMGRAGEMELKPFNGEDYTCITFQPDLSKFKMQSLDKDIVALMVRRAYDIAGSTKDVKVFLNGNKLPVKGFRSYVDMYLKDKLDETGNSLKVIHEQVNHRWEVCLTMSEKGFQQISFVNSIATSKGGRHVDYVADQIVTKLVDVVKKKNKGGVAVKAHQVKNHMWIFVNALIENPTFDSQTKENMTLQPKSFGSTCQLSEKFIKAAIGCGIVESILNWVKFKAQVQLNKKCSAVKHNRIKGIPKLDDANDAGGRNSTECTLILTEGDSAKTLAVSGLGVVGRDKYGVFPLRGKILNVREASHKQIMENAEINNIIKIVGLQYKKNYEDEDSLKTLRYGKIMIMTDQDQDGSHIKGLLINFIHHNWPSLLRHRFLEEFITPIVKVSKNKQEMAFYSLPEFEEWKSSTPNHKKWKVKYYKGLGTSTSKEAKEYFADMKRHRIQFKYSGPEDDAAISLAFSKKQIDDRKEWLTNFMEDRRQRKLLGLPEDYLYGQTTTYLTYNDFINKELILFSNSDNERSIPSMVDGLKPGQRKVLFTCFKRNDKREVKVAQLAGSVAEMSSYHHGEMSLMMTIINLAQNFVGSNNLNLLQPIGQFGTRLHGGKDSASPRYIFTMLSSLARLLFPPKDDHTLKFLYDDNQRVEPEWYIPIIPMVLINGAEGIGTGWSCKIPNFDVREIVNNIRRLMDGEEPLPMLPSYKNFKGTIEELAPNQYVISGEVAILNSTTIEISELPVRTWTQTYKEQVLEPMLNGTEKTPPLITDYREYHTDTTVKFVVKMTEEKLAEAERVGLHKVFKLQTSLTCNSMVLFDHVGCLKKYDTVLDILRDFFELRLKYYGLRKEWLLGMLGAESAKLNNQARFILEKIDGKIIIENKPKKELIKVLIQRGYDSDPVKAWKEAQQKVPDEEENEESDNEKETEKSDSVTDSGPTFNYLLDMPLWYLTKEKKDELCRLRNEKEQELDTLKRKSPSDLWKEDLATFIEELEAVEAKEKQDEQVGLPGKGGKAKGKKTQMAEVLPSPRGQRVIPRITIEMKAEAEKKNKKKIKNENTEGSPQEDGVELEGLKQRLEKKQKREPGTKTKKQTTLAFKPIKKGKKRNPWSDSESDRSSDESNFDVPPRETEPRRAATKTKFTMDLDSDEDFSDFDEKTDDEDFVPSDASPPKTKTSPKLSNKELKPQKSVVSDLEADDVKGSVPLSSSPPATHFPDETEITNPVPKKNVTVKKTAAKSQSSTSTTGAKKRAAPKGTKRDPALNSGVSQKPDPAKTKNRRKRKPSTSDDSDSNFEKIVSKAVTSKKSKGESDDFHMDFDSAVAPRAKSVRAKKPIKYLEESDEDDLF
Experimental: Kinetoplast DNA (KDNA), human topoisomerase II (170 KDa form), and DNA Unwinding Kit including supercoiled pHOT1 DNA, relaxed DNA marker, buffers, and human topoisomerase I were purchased from TopoGEN, Inc. Agarose was purchased from Fisher. Quinobenzoxazine A-62176 (S-enantiomer) was provided by Abbott Laboratories or prepared by published procedure (Chu and Maleczka, Jr., 1987).
0.25 μg of KDNA was incubated with various concentrations of the quinobenzoxazines in a 20-μl reaction mixture containing 50 mM Tris-HCl (pH 8), 120 mM KCl, 10 mM MgCl2, and 0.5 mM each of ATP, dithiothreitol, and […] BSA for 10 min. Two units of human topoisomerase II (170 KDa form) were added to the mixture, which was then incubated at 37° C. for 30 min. The reaction was terminated with 0.1 volume of stop buffer (5% sarkosyl, 0.025% bromophenol blue, and 50% glycerol). The decatenation products were analyzed on 1% agarose gels run with 0.5 μg/ml ethidium bromide. The gels were scanned by FluoroImager and analyzed by ImageQuaNT software (Molecular Dynamics).

sea urchin embryo system = assay: Sea urchin embryo system
supercoiled pHOT1 DNA = assay: DNA unwinding assay; format: biochemical; settings: concentration shifting topoisomers to the middle position between relaxed and supercoiled bands
Experimental: A 22 μl mixture of 0.25 μg of supercoiled pHOT1 DNA, 5 units of topoisomerase I in topoisomerase I buffer (provided with the kit) was incubated at 37° C. for 30 min. Two μl of various concentrations of drug was added, and the incubation was continued for another 30 min. The reactions were terminated by addition of SDS to 1%. Proteinase K was added to the reaction mixtures to ca. 50 μg/ml, and the reaction mixtures were incubated for 15-20 min at 56° C. After adding 0.1 volume of 10×gel loading buffer, the reaction mixtures were extracted with an equal volume of CIA (Chloroform:isoamyl Alcohol; 24:1). The samples were loaded on an 1% agarous gel that was cast in TPE buffer (36 mM Tris-HCl, pH 7.8, 1 mM EDTA, 30 mM NaH2PO4) and 0.2 μg/ml Chloroquine. The gel was run in TPE buffer at room temperature at 10 volts for 20 h, destained in water for 15 min, stained in 0.05 μg/ml ethidium bromide for 15 min, and destained again in water for 15 min. The gel was then photographed, scanned by FluoroImager, and analyzed by ImageQuaNT software (Molecular Dynamics).

[4] = tested on: G-quadruplex structure formed on the HT4 template; assay: DNA synthesis arrest assay (Taq polymerase primer extension); format: biochemical; settings: 55° C.
Experimental: FIG. 12A and FIG. 12B. Compound 2b (see FIG. 3) concentration-dependent block of Taq polymerase DNA synthesis by the G-quadruplex structure formed on the HT4 template at 55° C. (A) Autoradiogram of a sequencing gel showing enhanced DNA synthesis pausing at the G-quadruplex site with increasing concentrations of 2b. Arrows indicate the positions of the full length product of DNA synthesis, the G-quadruplex pausing site, and the free primer. (B) Quantitation of the gel using ImageQuaNT software.
This assay is similar to that described by Han and co-workers (Han et al., 1999). Briefly, primers (24 nM) labeled with [γ-^32P] were mixed with template DNA (12 nM)) in a Tris-HCl buffer (10 mM Tris, pH 8.0) containing K^+ (50 mM for the HT4 template) and denatured by heating at 90° C. for 5 min. After cooling down to room temperature, 2b was added at various concentrations and incubated at room temperature for 15 min. The primer extension reactions were initiated by adding dNTP (final concentration 100 μM), MgCl2 (final concentration […]), and Taq DNA polymerase (2.5 U/reaction, Boehringer Mannheim). The products were separated on a 12% polyacrylamide sequencing gel. The gels were then dried and visualized on a PhosphorImager (Molecular Dynamics model 445 S1). […]

SMILES: COc1cc2c(c3oc4c(O)cccc4c(=O)c13)C[C@H]([C@@]1(C)CO1)O2 [Psorospermin]
enhancement of reactivity with guanine at +4′ position of site B in the presence of topo II (topo II-DNA complex [1]): more than 40 fold

SMILES: CCn1cc(C(=O)O)c(=O)c2cc(F)c(N3CCNCC3)cc21 [Norfloxacin]
psorospermin alkylation at site B (competition) (topo II-DNA complex [2]): no competition
potency relative to III (fold less potent) [3]: at least 1000 fold

IC50 (B16 melanoma): 0.02 ± 0.002 µM
IC50 (H226 non-small-cell lung): 0.013 ± 0.005 µM
IC50 (Raji lymphoma): 0.034 ± 0.002 µM
IC50 (HT-29 colon): 0.026 ± 0.001 µM
IC50 (MDA-231 breast): 0.005 ± 0.001 µM
IC50 (DU-145 prostate): 0.03 ± 0.01 µM
IC50 (human topoisomerase II): 0.24 µM
primer extension by Taq DNA polymerase ([4]; 100 μM): completely inhibited
polymerase pausing at the G-quadruplex site ([4]; increasing concentration): enhanced pausing
SMILES: Cl.NC1CCN(c2c(F)cc3c(=O)c(C(=O)O)cn4c3c2Oc2c-4ccc3ccccc23)C1 (stereo not drawn) [Compound 2b, 1-(3-Aminopyrrolidin-1-yl)-2-fluoro-4-oxo-4H-pyrido[3,2,1-k,l]-benzo[f]-phenoxazine-5-carboxylic Acid]
telomerase inhibition (qualitative) (human telomerase): dual-acting; also recorded: inhibit telomerase
chromosomal aberrations (sea urchin embryo system): cause chromosomal aberrations
DNA unwinding concn (supercoiled pHOT1 DNA): 3 µM
